From patent US12485132B2, “GPX4 inhibitors and senolytic compounds and uses thereof” (Rubedo Life Sciences, Inc., priority 2023, dated 2025)

Key:
GPX4 = target: T1, GPX4 (Mus musculus, UniProt O70325); assay: Electrophoretic gel mobility shift of GPX4 in skin of treated mice (target engagement); assay type: in vivo; conditions: skin of BALB/c mice exposed to mitomycin C; 24 hr treatment
T1 construct: tissue Charles River Laboratories; host or cells: skin of BALB/c mice
Description: An electrophoretic gel mobility shift assay of GPX4 was applied to determine the level of target engagement of compound 32 as a direct biomarker in tissues. For example, target engagement of compound 32 was assessed in the skin of mice exposed to mitomycin C, a potent inducer of cellular senescence. Following 24 hr treatment with compound 32, the skin of treated BALB/c mice (Charles River Laboratories) was collected and lysed by IGEPAL CA-630 and sodium dodecyl sulfate (SDS) in the presence of a protease inhibitor cocktail (4693132001, Roche) and benzonase (E1014, Sigma-Aldrich). The soluble protein fraction was isolated and heat-denatured in the presence of dithiothreitol (DTT). Proteins were electrophoretically separated using a Bis-Tris protein gel with 12% polyacrylamide concentration. Following the transfer of proteins to a PVDF membrane, the membrane was probed with an anti-GPX4 monoclonal antibody (ab125066, Abcam) and anti-beta-Actin (4970, Cell Signaling Technology), followed by an anti-rabbit IgG HRP conjugated antibody (31460, ThermoFisher). Chemiluminescent following HRP substrate addition (34580, ThermoFisher) was detected by the ChemiDoc XRS+System (BioRad).

[1] = system: senescent normal human dermal fibroblasts; assay: Rescue of compound-induced cell death by ferrostatin-1 in senescent fibroblasts; assay type: cell-based; conditions: compounds at 1.11 μM, ferrostatin-1 at 0.375 and 6 μM; 24 hours; CellTiter-Glo
From the text: Cell death induced by ferroptosis-inducing agents can be characterized by rescuing the cellular response with radical trapping agents that prevent the accumulation of phospholipid hydroperoxides (Stockwell et al., Cell Chem Biol 2020 27 (4): 365-375). As such, ferrostatin-1 was identified as a potent inhibitor of ferroptosis for which a free radical trapping mechanism had been reported (Skouta et al., J Am Chem Soc 2014 136 (12): 4551-6; Zika et al., ACS Cent Sci. 2017 3 (3): 232-243; and Miotto et al., Redox Biol. 2020; 101328). To determine whether compounds 18 and 32 induce ferroptosis in senescent cells, normal human dermal fibroblasts were induced to undergo senescence by treatment with a sublethal concentration of chemotherapy (bleomycin sulfate), followed by a rest period without chemotherapy similarly to previous reports (Aoshiba et al., 2003 3:436-43). Cells were maintained in DMEM media (high glucose, 4 mM L-glutamine, no sodium pyruvate) supplemented with 10% heat-inactivated fetal bovine serum in a humidified incubator at 37° C. with 5% carbon dioxide and 5% oxygen. Cellular senescence was qualified by reduced EdU (5-ethynyl-2′-deoxyuridine) incorporation and increased SA-β-Gal (senescence-associated beta-galactosidase) staining compared to proliferating untreated cells. Senescent fibroblasts were plated into 96-well plates at a density of 10,000 cells per well. The next day, ferrostatin-1 was diluted in cell medium to reach a final concentration of 0.375 and 6 μM and was added to cells. Approximately 30 minutes after the addition of ferrostatin-1, compounds 18 and 32 at 1.11 μM, or the peptidyl transfer inhibitor puromycin at 10 μM were added to cells. Cells were incubated with the compounds for 24 hours, at which point viability was quantified using the CellTiter-Glo assay (Promega). The viability for treated cells was determined relative to untreated control cells.

T1 sequence (O70325 whole entry): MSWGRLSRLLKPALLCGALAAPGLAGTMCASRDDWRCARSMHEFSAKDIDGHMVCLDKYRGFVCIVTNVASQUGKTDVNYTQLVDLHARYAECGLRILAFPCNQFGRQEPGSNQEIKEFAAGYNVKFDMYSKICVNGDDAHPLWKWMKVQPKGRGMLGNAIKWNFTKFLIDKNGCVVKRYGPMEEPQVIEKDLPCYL

## C#CC(F)(F)[C@]1(O)CC[C@H]2[C@@H]3CCC4=CC(=NNC(=O)NC5CC5)CCC4=C3[C@H](c3ccc(C4CC4)cc3)C[C@@]21C [Compound 32, N-cyclopropyl-2-((8S,11S,13S,14S,17S)-11-(4-cyclopropylphenyl)-17-(1,1-difluoroprop-2-yn-1-yl)-17-hydroxy-13-methyl-1,2,6,7,8,11,12,13,14,15,16,17-dodecahydro-3H-cyclopenta[a]phenanthren-3-ylidene)hydrazine-1-carboxamide]
GPX4
  GPX4 band shift in skin (target engagement): slower migrating band for GPX4 was observed
[1]
  inhibition by ferrostatin-1 of compound-induced cell death: potently inhibits cell death induced by compounds 18 and 32
